Results from PubChem BioAssay AID1963833 (Molecular Pharmacology Branch, DTP, NCI, 2024).

Tested on: 883617-216-R-J1-PDC complex spheroid viability
Test: Anticancer human tumor 883617-216-R-J1-PDC patient-derived bladder carcinoma cell line growth inhibition [POLQ]
Details: for IC50: curve of first compound; for viability, T/C: stronger effect = lower value; active = viability on the fitted dose curve at most 10% of control; inactive = the rest
Experimental: Multicellular complex tumor spheroid response to Polymerase (POL) inhibitors (novobiocin, ART-558, RP6685) in combination with a variety of drugs and investigational agents in selected tumor cell lines
The POL inhibitors (novobiocin, ART-558, and RP6685) were evaluated both individually and in combination with standard of care and investigational anticancer small molecules within a complex spheroid model of solid tumors. . Complex spheroids include a stromal component modeled by human endothelial cells (HUVEC) and fibroblasts modeled by human mesenchymal stem cells (MSCs). The concentration ranges selected for each drug and investigational agent were based upon clinically achievable concentrations if the clinical Cmax of the agent was known.
Compounds. The drugs and investigational agents: novobiocin (NSC847541), ART-558 (NSC835418), RP-6685 (NSC848927), peposertib (NSC802822), ceralasertib (NSC780249), elimusertib (NSC800525), camonsertib (NSC841442), AZD-1390 (NSC803789), olaparib (NSC753686), talazoparib (NSC767125), rucaparib (NSC756644), sotorasib (NSC818433), MRTX-1133 (NSC836407), SN-38 (NSC673596), topotecan (NSC609699), epotoside (NSC141540), doxorubicin (NSC123127), gemcitabine (NSC613327), 5-fluorouracil (NSC19893), paclitaxel (NSC125973), vemurafenib (NSC761431), MSA-2 (NSC828583), SN-011 (NSC837082), adavosertib (NSC754352), prexasertib (NSC758257), carboplatin (NSC241240) and oxaliplatin (NSC266046), were obtained from the National Cancer Institute (NCI) Developmental Therapeutics Program Chemical Repository (21). The FDA-approved anticancer drug set is available from the Developmental Therapeutics Program at https://dtp.cancer.gov/organization/dscb/obtaining/. […] The stock solutions were prepared in dimethyl sulfoxide (DMSO, Sigma-Aldrich, St. Louis, MO, cat. D2650), except for the platinum compounds which were prepared in saline (Quality Biological, Gaithersburg, MD, cat. 114-055-101), at 800-fold the tested concentration and stored at -70 degrees C prior to their use. All drugs and investigational agents were tested over a range starting from a high concentration at or near the clinical Cmax and decreasing in half-log increments. If the clinical Cmax for an agent had not been determined, the highest concentration tested was 10 microM, except for SN-38, which was tested at a high concentration of 1 microM.
Cell Culture. All cells were maintained in an incubator at 37 degrees C and 5% CO2 with 95% humidity. The PDC lines were cultured according to standard operating procedures established by the NCI PDMR (https://pdmr.cancer.gov). Table 3 of the manuscript, lists the cell lines along with the number of the three cell types plated to form the mct-spheroids and media for tumor cell growth. After thawing, all PDC lines, except 997537-175-T-J1-PDC and 415267-285-R-J2-PDC, were cultured in Matrigel-coated flasks prepared with a working solution of 1X Ham's F-12 nutrient mix, without supplementation (Thermo Fisher Scientific, cat. 11765054), 100 U/mL penicillin-streptomycin (Thermo Fisher Scientific, cat. 15140122), and 2.5% Matrigel (Corning Inc., Corning, NY, cat. 354248) for the first three passages. The two PDC lines 997537-175-T-J1-PDC and 415267-285-R-J2-PDC were cultured on uncoated flasks. The 857933-349-R-J2-PDC line was cultured in 6C/Colon 1B media containing advanced DMEM/F-12 (Thermo Fisher Scientific, cat. 12634028), 10 mM HEPES (Thermo Fisher Scientific, cat. 15630080), 1X GlutaMAX supplement (Thermo Fisher Scientific, cat. 35050061), 0.1 mg/mL primocin (InvivoGen, San Diego, CA, cat. ant-pm-2), 10% defined fetal bovine serum, heat inactivated (HyClone Laboratories Inc., Logan, UT, cat. SH30070.03HI), 50% L-WRN conditioned media (ATCC, cat. CRL-3276), 1.25 mM N-Acetyl-L-cysteine (Sigma-Aldrich, cat. A9165), 10 mM nicotinamide (Sigma-Aldrich, cat. N0636), 1X B-27 supplement (Thermo Fisher Scientific, cat. 17504044), 1X N-2 supplement (Thermo Fisher Scientific, cat. […]

[1] = second compound 0.0316 µM, first compound 0.0316 µM
[2] = second compound 0.0316 µM, first compound 0.1 µM
[3] = second compound 0.1 µM, first compound 0.0316 µM
[4] = second compound 0.1 µM, first compound 0.1 µM
[5] = second compound 0.316 µM, first compound 0.0316 µM
[6] = second compound 0.316 µM, first compound 0.1 µM
[7] = second compound 1 µM, first compound 0.0316 µM
[8] = second compound 1 µM, first compound 0.1 µM
[9] = second compound 3.16 µM, first compound 0.0316 µM
[10] = second compound 3.16 µM, first compound 0.1 µM
[11] = second compound 10 µM, first compound 0.0316 µM
[12] = second compound 10 µM, first compound 0.1 µM
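Also: spheroids exposed to compounds for seven days before readout.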

CCCS(=O)(=O)Nc1ccc(F)c(C(=O)c2c[nH]c3ncc(-c4ccc(Cl)cc4)cc23)c1F + Cc1cccc(N(C)C(=O)C2C(O)CCN2c2nc(C)cc(C(F)(F)F)c2C#N)c1
> 10 µM: IC50 (second compound 0.0316 µM) | IC50 (second compound 0.1 µM) | IC50 (second compound 0.316 µM) | IC50 (second compound 1 µM) | IC50 (second compound 3.16 µM) | IC50 (second compound 10 µM)
inactive: viability, T/C [1] 89.5% | viability, T/C [2] 93.6% | viability, T/C (second compound 0.0316 µM, first compound 0.316 µM) 99.3% | viability, T/C (second compound 0.0316 µM, first compound 1 µM) 104% | viability, T/C (second compound 0.0316 µM, first compound 3.16 µM) 83.7% | viability, T/C (second compound 0.0316 µM, first compound 10 µM) 56.8% | viability, T/C [3] 105% | viability, T/C [4] 94.3% | viability, T/C (second compound 0.1 µM, first compound 0.316 µM) 97.2% | viability, T/C (second compound 0.1 µM, first compound 1 µM) 90.4% | viability, T/C (second compound 0.1 µM, first compound 3.16 µM) 93.9% | viability, T/C (second compound 0.1 µM, first compound 10 µM) 55.5% | viability, T/C [5] 86.9% | viability, T/C [6] 114% | viability, T/C (second compound 0.316 µM, first compound 0.316 µM) 98.4% | viability, T/C (second compound 0.316 µM, first compound 1 µM) 87.2% | viability, T/C (second compound 0.316 µM, first compound 3.16 µM) 80.6% | viability, T/C (second compound 0.316 µM, first compound 10 µM) 64.3% | viability, T/C [7] 97.4% | viability, T/C [8] 91.4% | viability, T/C (second compound 1 µM, first compound 0.316 µM) 92.7% | viability, T/C (second compound 1 µM, first compound 1 µM) 93.8% | viability, T/C (second compound 1 µM, first compound 3.16 µM) 92.9% | viability, T/C (second compound 1 µM, first compound 10 µM) 51.7% | viability, T/C [9] 116% | viability, T/C [10] 97.3% | viability, T/C (second compound 3.16 µM, first compound 0.316 µM) 106% | viability, T/C (second compound 3.16 µM, first compound 1 µM) 108% | viability, T/C (second compound 3.16 µM, first compound 3.16 µM) 89.2% | viability, T/C (second compound 3.16 µM, first compound 10 µM) 55.7% | viability, T/C [11] 98.2% | viability, T/C [12] 97.2% | viability, T/C (second compound 10 µM, first compound 0.316 µM) 104% | viability, T/C (second compound 10 µM, first compound 1 µM) 102% | viability, T/C (second compound 10 µM, first compound 3.16 µM) 100% | viability, T/C (second compound 10 µM, first compound 10 µM) 61.3%

CC[C@@]1(O)C(=O)OCc2c1cc1n(c2=O)Cc2cc3c(CN(C)C)c(O)ccc3nc2-1 + Cc1cccc(N(C)C(=O)C2C(O)CCN2c2nc(C)cc(C(F)(F)F)c2C#N)c1
inactive: viability, T/C (second compound 0.0316 µM, first compound 0.000316 µM) 96.3% | viability, T/C (second compound 0.0316 µM, first compound 0.001 µM) 85.8% | viability, T/C (second compound 0.0316 µM, first compound 0.00316 µM) 96.1% | viability, T/C (second compound 0.0316 µM, first compound 0.01 µM) 79.3% | viability, T/C [1] 57.5% | viability, T/C [2] 54.1% | viability, T/C (second compound 0.1 µM, first compound 0.000316 µM) 101% | viability, T/C (second compound 0.1 µM, first compound 0.001 µM) 93.3% | viability, T/C (second compound 0.1 µM, first compound 0.00316 µM) 83.7% | viability, T/C (second compound 0.1 µM, first compound 0.01 µM) 81.5% | viability, T/C [3] 58% | viability, T/C [4] 61.4% | viability, T/C (second compound 0.316 µM, first compound 0.000316 µM) 102% | viability, T/C (second compound 0.316 µM, first compound 0.001 µM) 106% | viability, T/C (second compound 0.316 µM, first compound 0.00316 µM) 87.6% | viability, T/C (second compound 0.316 µM, first compound 0.01 µM) 68.7% | viability, T/C [5] 64.6% | viability, T/C [6] 64.4% | viability, T/C (second compound 1 µM, first compound 0.000316 µM) 99.5% | viability, T/C (second compound 1 µM, first compound 0.001 µM) 113% | viability, T/C (second compound 1 µM, first compound 0.00316 µM) 97.1% | viability, T/C (second compound 1 µM, first compound 0.01 µM) 83.1% | viability, T/C [7] 63.8% | viability, T/C [8] 62.8% | viability, T/C (second compound 3.16 µM, first compound 0.000316 µM) 100% | viability, T/C (second compound 3.16 µM, first compound 0.001 µM) 103% | viability, T/C (second compound 3.16 µM, first compound 0.00316 µM) 98% | viability, T/C (second compound 3.16 µM, first compound 0.01 µM) 88.4% | viability, T/C [9] 66.9% | viability, T/C [10] 61.8% | viability, T/C (second compound 10 µM, first compound 0.000316 µM) 112% | viability, T/C (second compound 10 µM, first compound 0.001 µM) 94.6% | viability, T/C (second compound 10 µM, first compound 0.00316 µM) 105% | viability, T/C (second compound 10 µM, first compound 0.01 µM) 79.5% | viability, T/C [11] 67.7% | viability, T/C [12] 71%
> 0.1 µM: IC50 (second compound 0.0316 µM) | IC50 (second compound 0.1 µM) | IC50 (second compound 0.316 µM) | IC50 (second compound 1 µM) | IC50 (second compound 3.16 µM) | IC50 (second compound 10 µM)
